Reference: ChEMBL document CHEMBL4321797, “New Approaches to Cancer Therapy: Combining Fatty Acid Amide Hydrolase (FAAH) Inhibition with Peroxisome Proliferator-Activated Receptors (PPARs) Activation” (J Med Chem, 2019)

Legend:
[1] = biological target: T1, Fatty-acid amide hydrolase 1 (Homo sapiens, UniProt O00519); assay: Inhibition of FAAH (unknown origin)
T1 sequence (O00519 whole entry): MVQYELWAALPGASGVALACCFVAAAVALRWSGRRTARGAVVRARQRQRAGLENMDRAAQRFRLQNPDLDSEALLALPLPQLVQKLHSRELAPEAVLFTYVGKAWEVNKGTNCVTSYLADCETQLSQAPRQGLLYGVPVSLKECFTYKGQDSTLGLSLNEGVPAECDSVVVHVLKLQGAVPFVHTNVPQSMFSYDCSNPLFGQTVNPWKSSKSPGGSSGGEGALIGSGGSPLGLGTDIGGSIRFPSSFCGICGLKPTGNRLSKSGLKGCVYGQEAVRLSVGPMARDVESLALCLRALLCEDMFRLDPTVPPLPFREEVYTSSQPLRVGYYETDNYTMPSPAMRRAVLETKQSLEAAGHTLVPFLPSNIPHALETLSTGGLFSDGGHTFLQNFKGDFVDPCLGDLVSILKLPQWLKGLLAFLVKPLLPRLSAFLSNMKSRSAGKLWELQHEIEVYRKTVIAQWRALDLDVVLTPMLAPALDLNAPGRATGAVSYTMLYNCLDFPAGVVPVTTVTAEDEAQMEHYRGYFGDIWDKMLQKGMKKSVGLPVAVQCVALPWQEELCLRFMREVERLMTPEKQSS

[2] = biological target: T1, Fatty-acid amide hydrolase 1; assay: Inhibition of recombinant human C-terminal FLAG-tagged FAAH expressed in HEK293T cells preincubated for 4 hrs followed by addition of FP-TAMRA probe and measured after 20 mins by SDS-PAGE based fluorescence assay; format: cell-based

In the case of `CCCCC/C=C\C/C=C\C/C=C\C/C=C\CCCC(=O)NCCc1c[nH]c2ccc(O)cc12`, the IC50 [1] is reported as 5600 nM.
Work on `CN(C(=O)n1cnc(-c2ccc[n+]([O-])c2)c1)C1CCCCC1` yielded an IC50 [2] of 49 nM.
